PMC12052742, “Engineering a newly identified alcohol dehydrogenase from Sphingobium Sp. for efficient utilization of nicotinamide cofactors biomimetics” (Bioresources and Bioprocessing, 2025)

Legend:
Type in all cases: biochemical, Sphingobium sp. SYK-6
[1] = tested on: SpADH2 variant H43L; assay: Cofactor spectrum (HPLC specific activity), variant H43L; conditions: 1a 5 mM, cofactor 7.5 mM, pH 7.5, 30℃, 5 µg enzyme
Procedure: (§1) Fig. 8 Cofactor spectrums of SpADH2 and its variants. The darkness of color for each cofactor stands for the activity. For each cofactor cube, top left: WT, top right: H43L, bottom left: A290I, bottom right: H43L/A290I. (a) Natural cofactors and NMN^+ are shown in purple. (b) tsNCBs are shown in cyan. The evaluation of cofactor spectrum was carried out under following conditions: 50 mM PBS buffer (pH 7.5) and 30℃, with 1a (5 mM) as substrate and different cofactors (7.5 mM) as cofactor. For NAD(P)^+ and NMN^+, 0.05 µg enzyme was added, and for tsNCBs, 5 µg enzyme was added. The results were analyzed by HPLC after 1 h reaction
(§2) Specific activity of SpADH2 in cofactor spectrum study was determined by HPLC analysis. PBS (pH 7.5) buffer was pre-heated at 30°C for 15 min. For NAD(P)^+ and NMN^+, 0.05 µg SpADH2 was added to PBS buffer (100 µL). For tsNCBs, 5 µg SpADH2 was added. A final concentration of 7.5 mM cofactor was added to the reaction mixture. Finally, a final concentration of 5 mM substrate was added to start the reaction. The reactions were conducted at 30°C.
(§3) One unit of enzyme activity is defined as the amount of enzyme required to form 1 µmol 1b per minute at pH 7.5 and 30°C. Same reaction without cofactor was used as a blank control.

[2] = tested on: SpADH2; assay: Cofactor spectrum of syringyl alcohol oxidation (HPLC specific activity), WT; conditions: 1a 5 mM, cofactor 7.5 mM, pH 7.5, 30℃, 5 µg SpADH2, 1 h
Procedure: Fig. 2 Cofactor spectrum of syringyl alcohol oxidation catalyzed by SpADH2. The darkness of the background color for each cofactor stands for the activity of SpADH2 utilizing various cofactors. (a) NAD(P) ^+ and NMN^+ are shown in purple background. (b) tsNCBs are shown in cyan background. The evaluation of cofactor spectrum of SpADH2 was carried out under following conditions: 50 mM PBS buffer (pH 7.5) and 30℃, with 1a (5 mM) as substrate and different cofactors (7.5 mM) as cofactor. For NAD(P)^+ and NMN^+, 0.05 µg SpADH2 was added, and for tsNCBs, 5 µg SpADH2 was added. The results were analyzed by HPLC after 1 h reaction
as §2, §3

[3] = tested on: SpADH2; assay: Preliminary evaluation of NCB usage in oxidation of syringyl alcohol (HPLC); conditions: preliminary assay: 1a 1 mM, NCB 10 mM, pH 7.0, 30℃, 1 h
Procedure: Sphingobium sp. SYK-6 belongs to genus Sphingomonas, and a search in UniProtKB identified 19 ADHs from this strain, including 5 PQQ-dependent and the remaining NAD^+/NADP^+-dependent enzymes. Two sequences annotated as aryl-alcohol dehydrogenases (SLG_34580 and SLG_24930) (Table. S1) were selected for heterologous expression (Fig. S1) and named SpADH1 and SpADH2, respectively. Their ability to utilize NCBs was assessed by oxidation of syringyl alcohol (1a) to produce syringaldehyde (1b) (Fig. 1a).
Fig. 1 (a) Reaction scheme of SpADH2-catalyzed oxidation of syringyl alcohol. (b) Specific activity of SpADH2 toward four NCBs. The evaluation of NCBs usage by SpADH2 was carried out under following conditions: 50 mM PBS buffer (pH 7.0) and 30℃, with 1a (1 mM) as substrate and 4 typical NCBs (10 mM) as cofactor. A total of 0.1 mg/mL enzyme was added to a 200 µL reaction mixture, and was analyzed by HPLC after 1 h reaction
Reaction samples were analyzed using Agilent 1260 Infinity II LC system under reversed phase condition. Column: Agilent C18 column. Analytical conditions for 1a and 1b: mobile phase: 50% water: 50% acetonitrile. The retention time for standard product 1b was 3.27 min, under flow rate of 1 mL·min^− 1and temperature of 30°C (Fig. S4).

[4] = tested on: SpADH2 variant H43L/A290I; assay: Cofactor spectrum (HPLC specific activity), variant H43L/A290I; conditions: 1a 5 mM, cofactor 7.5 mM, pH 7.5, 30℃, 5 µg enzyme
Procedure: as §1, §2, §3

| Compound | utilization of the tsNCB (in words) [1] | utilization of the tsNCB by SpADH2 (in words) [2] | utilization of the NCB by SpADH2 (in words) [3] | utilization of the tsNCB (in words) [4] |
| --- | --- | --- | --- | --- |
| NC(=O)c1ccc[n+](CCc2ccccc2)c1 [P2NA^+, 3-carbamoyl-1-phenethylpyridin-1-ium] | exhibited activity | No detectable activity | could not be utilized |  |
| NC(=O)c1ccc[n+](CCCc2ccccc2)c1 [P3NA^+, 3-carbamoyl-1-(3-phenylpropyl)pyridin-1-ium] |  | No detectable activity | could not be utilized | acquired capability of utilizing |
